Target: human ACC2 (Homo sapiens (Human), UniProt O00763)
Assay: ACC2 assay (spectrophotometric 384 well assay, NADH-linked kinetic method)
Type: biochemical
Conditions: hACC2 construct lacking 128 N-terminal amino acids, 25° C., 340 nm
Protocol: Spectrophotometric 384 Well Assay
Malonyl CoA formation by acetyl CoA carboxylases is stoichometrically linked to the consumption of ATP. ACC2 activity is measured in a NADH-linked kinetic method measuring ADP generated during the ACC reaction using a coupled lactate dehydrogenase/pyruvate kinase reaction.
The protein is then expressed in insect cells using a baculoviral expression system. Protein purification is performed by anion exchange.
All compounds are dissolved in dimethyl sulfoxide (DMSO) to a concentration of 10 mM.
The enzymatic reaction is then started by addition of a mixture of NADH, acetyl Coenzyme A (both 200 μM f.c.) and ATP (500 uM f.c.). The decrease of the optical density (slope S) is then determined at 25° C. at a wavelength of 340 nm over 15 minutes in a spectrophotometric reader.
Each assay microtiter plate contains wells with vehicle instead of compound as controls for the non-inhibited enzyme (100% CTL; ‘HIGH’) and wells without acetyl-CoA as controls for non-specific NADH degradation (0% CTL; ‘LOW’).

human ACC2, sequence (O00763 129-2458): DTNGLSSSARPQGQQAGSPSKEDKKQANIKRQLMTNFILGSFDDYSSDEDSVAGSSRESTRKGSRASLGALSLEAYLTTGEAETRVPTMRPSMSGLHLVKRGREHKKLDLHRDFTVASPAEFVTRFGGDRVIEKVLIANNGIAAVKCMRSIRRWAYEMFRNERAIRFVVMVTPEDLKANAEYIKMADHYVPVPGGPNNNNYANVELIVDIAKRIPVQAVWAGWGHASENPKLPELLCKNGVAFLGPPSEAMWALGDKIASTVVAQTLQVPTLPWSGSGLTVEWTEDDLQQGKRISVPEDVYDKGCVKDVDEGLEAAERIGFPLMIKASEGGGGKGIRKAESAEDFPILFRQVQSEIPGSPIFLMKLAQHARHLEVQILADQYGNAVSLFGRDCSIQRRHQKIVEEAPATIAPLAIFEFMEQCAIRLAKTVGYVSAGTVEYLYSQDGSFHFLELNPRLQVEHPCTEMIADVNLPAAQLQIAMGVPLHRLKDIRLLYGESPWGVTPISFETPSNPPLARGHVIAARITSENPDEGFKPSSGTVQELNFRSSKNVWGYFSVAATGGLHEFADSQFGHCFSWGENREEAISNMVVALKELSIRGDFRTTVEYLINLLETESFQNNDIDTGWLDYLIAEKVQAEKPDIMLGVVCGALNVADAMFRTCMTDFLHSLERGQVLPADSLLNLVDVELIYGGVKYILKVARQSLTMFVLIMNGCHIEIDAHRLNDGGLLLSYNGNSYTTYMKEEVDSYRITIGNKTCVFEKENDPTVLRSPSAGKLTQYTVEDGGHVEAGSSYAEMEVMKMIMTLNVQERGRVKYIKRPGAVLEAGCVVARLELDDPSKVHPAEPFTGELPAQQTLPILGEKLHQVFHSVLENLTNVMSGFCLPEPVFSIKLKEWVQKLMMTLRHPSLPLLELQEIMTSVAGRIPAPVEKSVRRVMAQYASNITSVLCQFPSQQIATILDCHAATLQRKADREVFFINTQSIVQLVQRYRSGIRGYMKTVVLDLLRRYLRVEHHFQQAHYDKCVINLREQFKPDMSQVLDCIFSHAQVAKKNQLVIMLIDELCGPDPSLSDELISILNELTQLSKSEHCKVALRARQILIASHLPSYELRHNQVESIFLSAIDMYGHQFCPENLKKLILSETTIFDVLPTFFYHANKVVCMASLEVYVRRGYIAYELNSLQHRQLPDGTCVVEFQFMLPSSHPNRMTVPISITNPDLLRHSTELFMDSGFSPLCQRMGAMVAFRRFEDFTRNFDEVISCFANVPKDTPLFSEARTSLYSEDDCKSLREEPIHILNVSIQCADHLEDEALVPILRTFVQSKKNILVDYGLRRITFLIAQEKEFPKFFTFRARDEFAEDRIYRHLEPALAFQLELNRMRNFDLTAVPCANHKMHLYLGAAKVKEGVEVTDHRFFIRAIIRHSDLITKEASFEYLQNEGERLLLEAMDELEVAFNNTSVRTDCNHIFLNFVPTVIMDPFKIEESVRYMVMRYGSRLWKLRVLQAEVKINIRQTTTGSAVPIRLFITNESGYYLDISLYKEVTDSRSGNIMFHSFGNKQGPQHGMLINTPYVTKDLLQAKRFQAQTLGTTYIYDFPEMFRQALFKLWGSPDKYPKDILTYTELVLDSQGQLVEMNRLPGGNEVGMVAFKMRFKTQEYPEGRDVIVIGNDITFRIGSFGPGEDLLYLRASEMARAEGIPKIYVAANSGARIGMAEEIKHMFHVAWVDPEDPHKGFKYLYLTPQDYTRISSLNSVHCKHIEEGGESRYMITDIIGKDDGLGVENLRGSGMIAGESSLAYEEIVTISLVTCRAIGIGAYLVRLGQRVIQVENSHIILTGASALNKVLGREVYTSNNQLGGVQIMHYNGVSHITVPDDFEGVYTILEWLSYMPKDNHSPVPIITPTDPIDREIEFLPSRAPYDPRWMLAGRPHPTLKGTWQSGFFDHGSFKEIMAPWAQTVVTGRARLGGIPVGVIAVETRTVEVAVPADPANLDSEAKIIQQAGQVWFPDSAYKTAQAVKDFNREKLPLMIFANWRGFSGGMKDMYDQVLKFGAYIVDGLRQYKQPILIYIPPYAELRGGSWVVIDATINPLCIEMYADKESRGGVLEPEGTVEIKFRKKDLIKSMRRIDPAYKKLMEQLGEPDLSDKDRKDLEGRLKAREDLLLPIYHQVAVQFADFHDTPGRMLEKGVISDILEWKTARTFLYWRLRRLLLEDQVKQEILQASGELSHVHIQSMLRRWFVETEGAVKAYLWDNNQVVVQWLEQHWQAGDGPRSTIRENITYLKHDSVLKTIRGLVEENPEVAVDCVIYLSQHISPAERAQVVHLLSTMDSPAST

Structure (SMILES)	IC50
C[C@H](NC(=O)Cc1cncnc1)c1ccc(O[C@@H]2CCN(c3ccc(OCC4CC4)cc3)C2)cc1 [Example 2.7]	121 nM
Cc1cc(C(=O)N[C@@H](C)c2ccc(O[C@@H]3CCN(c4ccc(OCC5CC5)cc4)C3)cc2)[nH]n1 [Example 2.8]	330 nM
Cc1cc(CC(=O)N[C@@H](C)c2ccc(O[C@@H]3CCN(c4ccc(OCC5CC5)cc4)C3)cc2)on1 [Example 2.9]	138 nM
C[C@H](NC(=O)C1(C)CC1)c1ccc(O[C@@H]2CCN(c3ccc(OCC4CC4)cc3)C2)cc1 [Example 2.10]	79 nM
C[C@H](NC(=O)c1cnn(C)c1)c1ccc(O[C@@H]2CCN(c3ccc(OCC4CC4)cc3)C2)cc1 [Example 2.11]	132 nM
C[C@H](NC(=O)Cc1cc[nH]c1)c1ccc(O[C@@H]2CCN(c3ccc(OCC4CC4)cc3)C2)cc1 [Example 2.12]	397 nM
C[C@H](NC(=O)c1cc[nH]n1)c1ccc(O[C@@H]2CCN(c3ccc(OCC4CC4)cc3)C2)cc1 [Example 2.13]	359 nM
CNC(=O)c1cccc(C(=O)N[C@@H](C)c2ccc(O[C@@H]3CCN(c4ccc(OCC5CC5)cc4)C3)cc2)n1 [Example 2.14]	705 nM
Cc1cc(C(=O)N[C@@H](C)c2ccc(O[C@@H]3CCN(c4ccc(OCC5CC5)cc4)C3)cc2)no1 [Example 2.15]	315 nM
C[C@H](NC(=O)C1(C(=O)N(C)C)CC1)c1ccc(O[C@@H]2CCN(c3ccc(OCC4CC4)cc3)C2)cc1 [Example 2.16]	864 nM
COc1cc(C(=O)N[C@@H](C)c2ccc(O[C@@H]3CCN(c4ccc(OCC5CC5)cc4)C3)cc2)on1 [Example 2.17]	346 nM
Cc1ncncc1C(=O)N[C@@H](C)c1ccc(O[C@@H]2CCN(c3ccc(OCC4CC4)cc3)C2)cc1 [Example 2.18]	551 nM
CC(C)Oc1ccc(N2CC[C@@H](Oc3ccc([C@H](C)NC(=O)C(F)(F)F)cc3)C2)cc1 [Example 2.19]	124 nM
CCC(=O)N[C@@H](C)c1ccc(O[C@@H]2CCN(c3ccc(OC(C)C)cc3)C2)cc1 [Example 2.20]	774 nM
Cc1oncc1C(=O)N[C@@H](C)c1ccc(O[C@@H]2CCN(c3ccc(OCC4CC4)cc3)C2)cc1 [Example 2.21]	45 nM
C[C@H](NC(=O)c1cnco1)c1ccc(O[C@@H]2CCN(c3ccc(OCC4CC4)cc3)C2)cc1 [Example 2.22]	30 nM
CC(C#N)C(=O)N[C@@H](C)c1ccc(O[C@@H]2CCN(c3ccc(OCC4CC4)cc3)C2)cc1 (stereo partly shown) [Example 2.23]	56 nM
CCC(=O)N[C@@H](C)c1ccc(O[C@@H]2CCN(c3ccc(OCC4CC4)cc3)C2)cc1 [Example 2.24]	40 nM
C[C@H](NC(=O)C(F)F)c1ccc(O[C@@H]2CCN(c3ccc(OCC4CC4)cc3)C2)cc1 [Example 2.25]	38 nM
Cc1[nH]ncc1C(=O)N[C@@H](C)c1ccc(O[C@@H]2CCN(c3ccc(OCC4CC4)cc3)C2)cc1 [Example 2.26]	47 nM
C[C@H](NC(=O)c1cnc(N)o1)c1ccc(O[C@@H]2CCN(c3ccc(OCC4CC4)cc3)C2)cc1 [Example 2.27]	107 nM
C[C@H](NC(=O)c1ccns1)c1ccc(O[C@@H]2CCN(c3ccc(OCC4CC4)cc3)C2)cc1 [Example 2.28]	105 nM

Structure (SMILES)	IC50
C[C@H](NC(=O)CO)c1ccc(O[C@@H]2CCN(c3ccc(OCC4CC4)cc3)C2)cc1 [Example 2.29]	400 nM
C[C@H](O)C(=O)N[C@@H](C)c1ccc(O[C@@H]2CCN(c3ccc(OCC4CC4)cc3)C2)cc1 [Example 2.30]	793 nM
C[C@H](NC(=O)CC#N)c1ccc(O[C@@H]2CCN(c3ccc(OCC4CC4)cc3)C2)cc1 [Example 2.31]	71 nM
CC(O)C(=O)N[C@@H](C)c1ccc(O[C@@H]2CCN(c3ccc(OCC4CC4)cc3)C2)cc1 (stereo partly shown) [Example 2.33]	793 nM
C[C@H](NC(=O)c1ccon1)c1ccc(O[C@@H]2CCN(c3ccc(OCC4CC4)cc3)C2)cc1 [Example 2.34]	71 nM
C[C@H](NC(=O)C1(C#N)CC1)c1ccc(O[C@@H]2CCN(c3ccc(OCC4CC4)cc3)C2)cc1 [Example 2.35]	273 nM
C[C@H](NC(=O)c1ccnnc1)c1ccc(O[C@@H]2CCN(c3ccc(OCC4CC4)cc3)C2)cc1 [Example 2.36]	200 nM
Cc1nocc1C(=O)N[C@@H](C)c1ccc(O[C@@H]2CCN(c3ccc(OCC4CC4)cc3)C2)cc1 [Example 2.37]	65 nM
C[C@H](NC(=O)c1cncs1)c1ccc(O[C@@H]2CCN(c3ccc(OCC4CC4)cc3)C2)cc1 [Example 2.38]	17 nM
C[C@H](NC(=O)C(C)(C)C#N)c1ccc(O[C@@H]2CCN(c3ccc(OCC4CC4)cc3)C2)cc1 [Example 2.39]	465 nM
Cc1nc(N)sc1C(=O)N[C@@H](C)c1ccc(O[C@@H]2CCN(c3ccc(OCC4CC4)cc3)C2)cc1 [Example 2.40]	384 nM
CCC(=O)Nc1nc(C)c(C(=O)N[C@@H](C)c2ccc(OC3CCN(c4ccc(OCC5CC5)cc4)C3)cc2)s1 (stereo partly shown) [Example 2.41]	23 nM
COCC(=O)Nc1nc(C)c(C(=O)N[C@@H](C)c2ccc(OC3CCN(c4ccc(OCC5CC5)cc4)C3)cc2)s1 (stereo partly shown) [Example 2.42]	20 nM
C[C@H](NC(=O)c1cnc(N)s1)c1ccc(O[C@@H]2CCN(c3ccc(OCC4CC4)cc3)C2)cc1 [Example 2.43]	160 nM
C[C@H](NC(=O)c1cnn(C)c1Cl)c1ccc(O[C@@H]2CCN(c3ccc(OCC4CC4)cc3)C2)cc1 [Example 2.44]	55 nM
C[C@H](NC(=O)c1cn(C)nc1C(F)F)c1ccc(O[C@@H]2CCN(c3ccc(OCC4CC4)cc3)C2)cc1 [Example 2.45]	993 nM
C[C@H](NC(=O)c1cnn(C(F)F)c1)c1ccc(O[C@@H]2CCN(c3ccc(OCC4CC4)cc3)C2)cc1 [Example 2.46]	382 nM
Cc1c(C(=O)N[C@@H](C)c2ccc(O[C@@H]3CCN(c4ccc(OCC5CC5)cc4)C3)cc2)cnn1C [Example 2.47]	385 nM
C[C@H](NC(=O)c1c[nH]nc1C(F)(F)F)c1ccc(O[C@@H]2CCN(c3ccc(OCC4CC4)cc3)C2)cc1 [Example 2.48]	445 nM
C[C@H](NC(=O)c1cnn2ccn(C)c12)c1ccc(O[C@@H]2CCN(c3ccc(OCC4CC4)cc3)C2)cc1 [Example 2.49]	885 nM
C[C@H](NC(=O)c1cnn(C)c1N)c1ccc(O[C@@H]2CCN(c3ccc(OCC4CC4)cc3)C2)cc1 [Example 2.50]	65 nM
C[C@H](NC(=O)c1cnn(CCO)c1)c1ccc(O[C@@H]2CCN(c3ccc(OCC4CC4)cc3)C2)cc1 [Example 2.51]	495 nM

Structure (SMILES)	IC50
C[C@H](NC(=O)c1cnn(CC(F)F)c1)c1ccc(O[C@@H]2CCN(c3ccc(OCC4CC4)cc3)C2)cc1 [Example 2.52]	805 nM
CCOc1ccc(N2CC[C@@H](Oc3ccc([C@H](C)NC(=O)c4sc(NC(=O)COCc5ccccc5)nc4C)cc3)C2)cc1 [Example 2.54]	45 nM
CCOc1ccc(N2CC[C@@H](Oc3ccc([C@H](C)NC(=O)c4sc(NC(=O)COC(C)=O)nc4C)cc3)C2)cc1 [Example 2.55]	53 nM
C[C@H](NC(=O)c1cn(C)nc1C#N)c1ccc(O[C@@H]2CCN(c3ccc(OCC4CC4)cc3)C2)cc1 [Example 2.56]	417 nM
C[C@H](NC(=O)c1c[nH]nc1C#N)c1ccc(O[C@@H]2CCN(c3ccc(OCC4CC4)cc3)C2)cc1 [Example 2.57]	122 nM
Cc1cc(OC2CC2)ccc1N1CC[C@@H](Oc2ccc([C@H](C)NC(=O)CO)cc2)C1 [Example 2.58]	743 nM
Cc1cc(OC2CC2)ccc1N1CC[C@@H](Oc2ccc([C@H](C)NC(=O)CC#N)cc2)C1 [Example 2.59]	680 nM
Cc1cc(OC2CC2)ccc1N1CC[C@@H](Oc2ccc([C@H](C)NC(=O)c3cncs3)cc2)C1 [Example 2.60]	260 nM
Cc1cc(OC2CC2)ccc1N1CC[C@@H](Oc2ccc([C@H](C)NC(=O)c3cnco3)cc2)C1 [Example 2.61]	397 nM
CCC(=O)N[C@@H](C)c1ccc(O[C@@H]2CCN(c3ccc(OC4CC4)cc3C)C2)cc1 [Example 2.62]	411 nM
CC(=O)Nc1nc(C)c(C(=O)N[C@@H](C)c2ccc(O[C@@H]3CCN(c4ccc(OC5CC5)cc4C)C3)cc2)s1 [Example 2.63]	238 nM
Cc1cc(OC2CC2)ccc1N1CC[C@@H](Oc2ccc([C@H](C)NC(=O)c3cn[nH]c3)cc2)C1 [Example 2.64]	357 nM
Cc1cc(OC2CC2)ccc1N1CC[C@@H](Oc2ccc([C@H](C)NC(=O)c3cnoc3C)cc2)C1 [Example 2.65]	90 nM
C[C@H](NC(=O)N(C)C)c1ccc(O[C@@H]2CCN(c3ccc(OCC4CC4)cc3)C2)cc1 [Example 3.1, 3-((S)-1-(4-((R)-1-(4-(cyclopropylmethoxy)phenyl)pyrrolidin-3-yloxy)phenyl)ethyl)-1,1-dimethylurea]	74 nM
CCNC(=O)N[C@@H](C)c1ccc(OC2CCN(c3ccc(OCC4CC4)cc3)C2)cc1 (stereo partly shown) [Example 3.2]	55 nM
C[C@H](NC(=O)N1CCC1)c1ccc(OC2CCN(c3ccc(OCC4CC4)cc3)C2)cc1 (stereo partly shown) [Example 3.3]	1270 nM
CCN(C)C(=O)N[C@@H](C)c1ccc(OC2CCN(c3ccc(OCC4CC4)cc3)C2)cc1 (stereo partly shown) [Example 3.4]	165 nM
C[C@H](NC(=O)N1CCOCC1)c1ccc(OC2CCN(c3ccc(OCC4CC4)cc3)C2)cc1 (stereo partly shown) [Example 3.5]	198 nM
C[C@H](NC(=O)N(C)Cc1ccncn1)c1ccc(OC2CCN(c3ccc(OCC4CC4)cc3)C2)cc1 (stereo partly shown) [Example 3.6]	504 nM
C[C@H](NC(=O)Nc1ccon1)c1ccc(OC2CCN(c3ccc(OCC4CC4)cc3)C2)cc1 (stereo partly shown) [Example 3.7]	56 nM
